# Reference: PubChem BioAssay (NCI)
#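 Where inhibition never reached the appropriate level, the endpoint shown equals the highest concentration tested. Otherwise, values were interpolated linearly from a five-concentration, 48-hour dose response in 96-well plates. TGI: concentration producing complete growth inhibition.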
# Legend:
# Test in all cases: NCI-60 cell line screen, 48 h
# SR leukemia = tested on: SR leukemia
# OVCAR-4 ovarian = tested on: OVCAR-4 ovarian
# TK-10 renal = tested on: TK-10 renal
# A549 NSCLC = tested on: A549 NSCLC
# MOLT-4 leukemia = tested on: MOLT-4 leukemia
# LXFL 529 NSCLC = tested on: LXFL 529 NSCLC
# HCC-2998 colon = tested on: HCC-2998 colon
# SF-268 CNS = tested on: SF-268 CNS
# IGROV1 ovarian = tested on: IGROV1 ovarian
# HL-60(TB) leukemia = tested on: HL-60(TB) leukemia
# M14 melanoma = tested on: M14 melanoma
# 786-0 renal = tested on: 786-0 renal
# DMS 114 small cell lung = tested on: DMS 114 small cell lung
# HOP-62 NSCLC = tested on: HOP-62 NSCLC
# MALME-3M melanoma = tested on: MALME-3M melanoma
# U251 CNS = tested on: U251 CNS
# SK-OV-3 ovarian = tested on: SK-OV-3 ovarian
# UACC-257 melanoma = tested on: UACC-257 melanoma
# RPMI-8226 leukemia = tested on: RPMI-8226 leukemia
# LOX IMVI melanoma = tested on: LOX IMVI melanoma
# SK-MEL-28 melanoma = tested on: SK-MEL-28 melanoma
# COLO 205 colon = tested on: COLO 205 colon
# SK-MEL-5 melanoma = tested on: SK-MEL-5 melanoma
# SK-MEL-2 melanoma = tested on: SK-MEL-2 melanoma
# HT29 colon = tested on: HT29 colon
# OVCAR-3 ovarian = tested on: OVCAR-3 ovarian
# SF-539 CNS = tested on: SF-539 CNS
# OVCAR-5 ovarian = tested on: OVCAR-5 ovarian
# NCI-H23 lung = tested on: NCI-H23 lung
# SF-295 CNS = tested on: SF-295 CNS
# SNB-78 CNS = tested on: SNB-78 CNS
# HCT-116 colon = tested on: HCT-116 colon
# CAKI-1 renal = tested on: CAKI-1 renal
# EKVX NSCLC = tested on: EKVX NSCLC
# SNB-75 CNS = tested on: SNB-75 CNS
# HCT-15 colon = tested on: HCT-15 colon
# UACC-62 melanoma = tested on: UACC-62 melanoma
# SW-620 colon = tested on: SW-620 colon
# M19-MEL melanoma = tested on: M19-MEL melanoma
# KM20L2 colon = tested on: KM20L2 colon
# UO-31 renal = tested on: UO-31 renal
# SNB-19 CNS = tested on: SNB-19 CNS
# NCI-H226 lung = tested on: NCI-H226 lung
# NCI-H522 lung = tested on: NCI-H522 lung
# K-562 leukemia = tested on: K-562 leukemia
# OVCAR-8 ovarian = tested on: OVCAR-8 ovarian
# RXF 393 renal = tested on: RXF 393 renal
# CCRF-CEM leukemia = tested on: CCRF-CEM leukemia
# ACHN renal = tested on: ACHN renal
# HOP-18 NSCLC = tested on: HOP-18 NSCLC
# NCI-H460 lung = tested on: NCI-H460 lung
# DLD-1 colon = tested on: DLD-1 colon
# KM12 colon = tested on: KM12 colon
# A498 renal = tested on: A498 renal
# HOP-92 NSCLC = tested on: HOP-92 NSCLC
# SN12C renal = tested on: SN12C renal
smiles,measurement,setting,value
Cc1ccc2c(c1)c(=O)c1c(NCCN(C)C)ccc3nnn2c31,TGI,SR leukemia,7.67 µM
same,TGI,OVCAR-4 ovarian,12.9 µM
same,TGI,TK-10 renal,28.3 µM
same,TGI,A549 NSCLC,13.6 µM
same,TGI,MOLT-4 leukemia,5.06 µM
same,TGI,LXFL 529 NSCLC,20.1 µM
same,TGI,HCC-2998 colon,17 µM
same,TGI,SF-268 CNS,20.2 µM
same,TGI,IGROV1 ovarian,23 µM
same,TGI,HL-60(TB) leukemia,8.58 µM
same,TGI,M14 melanoma,16.4 µM
same,TGI,786-0 renal,15.9 µM
same,TGI,DMS 114 small cell lung,18.5 µM
same,TGI,HOP-62 NSCLC,21.5 µM
same,TGI,MALME-3M melanoma,18 µM
same,TGI,U251 CNS,16.9 µM
same,TGI,SK-OV-3 ovarian,37.6 µM
same,TGI,UACC-257 melanoma,14.2 µM
same,TGI,RPMI-8226 leukemia,7.63 µM
same,TGI,LOX IMVI melanoma,4.6 µM
same,TGI,SK-MEL-28 melanoma,18 µM
same,TGI,COLO 205 colon,9.72 µM
same,TGI,SK-MEL-5 melanoma,14.1 µM
same,TGI,SK-MEL-2 melanoma,21.1 µM
same,TGI,HT29 colon,12 µM
same,TGI,OVCAR-3 ovarian,> 42.8 µM
same,TGI,SF-539 CNS,17.8 µM
same,TGI,OVCAR-5 ovarian,12.4 µM
same,TGI,NCI-H23 lung,15.3 µM
same,TGI,SF-295 CNS,15.4 µM
same,TGI,SNB-78 CNS,24.2 µM
same,TGI,HCT-116 colon,15.2 µM
same,TGI,CAKI-1 renal,12.3 µM
same,TGI,EKVX NSCLC,23.6 µM
same,TGI,SNB-75 CNS,16.9 µM
same,TGI,HCT-15 colon,20.3 µM
same,TGI,UACC-62 melanoma,20.5 µM
same,TGI,SW-620 colon,18 µM
same,TGI,M19-MEL melanoma,20.8 µM
same,TGI,KM20L2 colon,16 µM
same,TGI,UO-31 renal,23.9 µM
same,TGI,SNB-19 CNS,33.8 µM
same,TGI,NCI-H226 lung,10.3 µM
same,TGI,NCI-H522 lung,17.6 µM
same,TGI,K-562 leukemia,19.6 µM
same,TGI,OVCAR-8 ovarian,17.7 µM
same,TGI,RXF 393 renal,16.9 µM
same,TGI,CCRF-CEM leukemia,17.9 µM
same,TGI,ACHN renal,17.7 µM
same,TGI,HOP-18 NSCLC,50 µM
same,TGI,NCI-H460 lung,10.2 µM
same,TGI,DLD-1 colon,20 µM
same,TGI,KM12 colon,11.7 µM
same,TGI,A498 renal,12 µM
same,TGI,HOP-92 NSCLC,11.5 µM
same,TGI,SN12C renal,> 42 µM
